Assay results reported in EP0096457B1, “Indium complexes of substituted 8-hydroxy-quinolines, pharmaceutical compositions containing them and their use as antibacterial agents” (NATIONAL RESEARCH DEVELOPMENT CORPORATION, priority 1982, dated 1983).
Converted amounts (≈) assume the structure as drawn.

Assays:
E. coli (108, co1V^+) = format: in vivo; conditions: groups of 5 Parks mice infected i.p. with 8.0 x 10^6 E. coli, i.p. treatment 0.2 ml twice per day for 1 day (indium complex 4.6 mg/kg, metal-free compound 3.4 mg/kg per dose)
Method: (§1) The solutions for administration were prepared as follows: • (1) 2 equivalents of 5,7-dichloro-8-hydroxyquinoline were dissolved in a 15 mM solution of InCl3·3H2O in ethanol containing 1% v/v of glycerol. A 1.0 ml aliquot of this solution was dried in vacuo using a sterile universal container and the resultant residue was treated with 15 ml of sterile 0.15 M aqueous sodium chloride containing 1 % w/v of sodium bicarbonate and the solid dispersed by sonication. A 0.2 ml dose of the final preparation corresponds to a dose of 4.6 mg/kg in a 25 g mouse. • (2) 6.4 mg of 5,7-dichloro-8-hydroxyquinoline were moistened by the addition of 0.05 ml of dimethyl sulphoxide and to the moistened material was added 15 ml of sterile 0.15 M aqueous sodium chloride containing 1% w/v of sodium bicarbonate, the solid then being dispersed by sonication. A 0.2 ml dose of the final preparation corresponds to a dose of 3.4 mg/kg in a 25 g mouse.
Groups of 5 male or female Parks mice weighing from 23-25 g were infected by intraperitoneal injection of one of 8.0 x 10^6 E. coli, 3.5 x 10^5 K. pneumoniae and 7.0 x 10^8 S. aureus, the organisms in each case being suspended in 0.2 ml of 10% v/v trypticase soy broth in 0.15 M aqueous sodium chloride, three groups of mice being infected with each organism. […]

K. pneumoniae = assay: In vivo test in intraperitoneally infected mice (deaths); conditions: groups of 5 Parks mice infected i.p. with 3.5 x 10^5 K. pneumoniae, i.p. treatment 0.2 ml twice per day for 4 days (indium complex 4.6 mg/kg, metal-free compound 3.4 mg/kg per dose)
Method: as §1
(§2) Groups of 5 male or female Parks mice weighing from 23-25 g were infected by intraperitoneal injection of one of 8.0 x 10^6 E. coli, 3.5 x 10^5 K. pneumoniae and 7.0 x 10^8 S. aureus, the organisms in each case being suspended in 0.2 ml of 10% v/v trypticase soy broth in 0.15 M aqueous sodium chloride, three groups of mice being infected with each organism. For each organism, one of the three groups of infected mice was treated by intraperitoneal injection with 0.2 ml of a suspension of the indium complex whilst a second group was similarly treated with 0.2 ml of a supsension of the metal-free compound. The treatment was given twice per day for 1 day in the case of E. coli infection, twice per day for 4 days in the case of K. pneumoniae infection, and twice per day for 2 days in the case of the S. aureus infection. The third group of mice in each case received no treatment.

[1] = system: S. aureus (human isolate); assay: as above; conditions: groups of 5 Parks mice infected i.p. with 7.0 x 10^8 S. aureus, i.p. treatment 0.2 ml twice per day for 2 days (indium complex 4.6 mg/kg, metal-free compound 3.4 mg/kg per dose)
Method: as §1, §2

Klebsiella pneumoniae = assay: Minimal inhibitory concentration (MIC) in broth culture; format: cell-based; conditions: trypticase soy broth with sodium bicarbonate, approx. 10^4 bacteria per ml, 18 hours at 37°C, 5% CO2 in air, lowest concentration with no visible growth, read-out: MIC Values K. pneumoniae
Method: (§3) Experiments were carried out to find the minimal inhibitory concentrations (MIC) for solutions of various indium complexes against Staphylococcus aureus (human isolate), Escherichia coli (018; co1V^+) and Klebsiella pneumoniae and to compare these with the MIC values for the corresponding metal-free compounds. The complexes were prepared in solution as described in Example 1 except that in the case of the complex of 7-iodo-8-hydroxyquinoline 5-sulphonic acid, 5 molar equivalents of metal-free compound were reacted with the indium chloride trihydrate and the solution was prepared in water. The solutions of the metal-free compounds were prepared in the same solvent as used for the equivalent complex.
(§4) The culture medium used consisted of a 9:1 mixture of trypticase soy broth and 6% w/v aqueous sodium bicarbonate solution. The medium was bulk inoculated with approximately 10^4 test bacteria per ml and 5.0 ml aliquots were then dispensed into sterile 20 ml bottles to which 0.05 ml of the test solution had been added. The test solutions were obtained from the original solution of the indium complex or metal-free compound by dilution to give a suitable range of concentrations in µM. Control samples, to which either no test solution was added or to which the solvent of the test solution only was added, were also prepared.
(§5) For each compound tested the samples at the various concentrations were studied to determine the lowest concentration of the compound at which no growth could be seen. The MIC values thus obtained are shown in Table 1 where it will be seen that the values are in each case lower for the indium complex as compared with the metal-free compound.

[2] = system: Escherichia coli (018; co1V^+); assay: as above; format: cell-based; conditions: trypticase soy broth with sodium bicarbonate, approx. 10^4 bacteria per ml, 18 hours at 37°C, 5% CO2 in air, lowest concentration with no visible growth, read-out: MIC Values E. coli
Method: as §3, §4, §5

[3] = system: Staphylococcus aureus (human isolate); assay: as above; format: cell-based; conditions: trypticase soy broth with sodium bicarbonate, approx. 10^4 bacteria per ml, 18 hours at 37°C, 5% CO2 in air, lowest concentration with no visible growth, read-out: MIC Values S. aureus
Method: as §3, §4, §5

SMILES | Deaths at 7 days (E. coli (108, co1V^+)) | Deaths % (E. coli (108, co1V^+); at 7 days) [%] | Deaths at 7 days (K. pneumoniae) | Deaths % (K. pneumoniae; at 7 days) [%] | Deaths at 7 days [1] | Deaths % ([1]; at 7 days) [%] | MIC (Klebsiella pneumoniae) [µM] | MIC [2] [µM] | MIC [3] [µM]
Oc1c(Cl)cc(Cl)c2cccnc12 [5,7-dichloro-8-hydroxyquinoline] | 5 | 100 | 5 | 100 | 4 | 80 | 100 (≈ 21.4 µg/mL) | 100 (≈ 21.4 µg/mL) | 6.3 (≈ 1.35 µg/mL)
Oc1ccc(Cl)c2cccnc12 [5-Chloro-8-hydroxyquinoline] |  |  |  |  |  |  | 38.5 (≈ 6.91 µg/mL) | 38.5 (≈ 6.91 µg/mL) | 18.8 (≈ 3.38 µg/mL)
O=S(=O)(O)c1cc(I)c(O)c2ncccc12 [7-Iodo-8-hydroxyquinoline 5-sulphonic acid] |  |  |  |  |  |  | > 500 | > 500 | > 500
